Results reported in publication PMC4550830, “Pheromone binding proteins enhance the sensitivity of olfactory receptors to sex pheromones in Chilo suppressalis” (Scientific Reports, 2015).
pKd: −log10 of the molar value. Values joined by “and” are separate entries in the source; they are usually repeats but may differ in a detail not shown here. Equal values may be shown once.

What was measured:
CsupPBP3 = target: T1, CsupPBP3 (Chilo suppressalis, UniProt F6K0S3); assay: Fluorescence binding assay (1-NPN titration and competitive displacement), CsupPBP3; conditions: 2 μM protein in 50 mM Tris-HCl titrated with 1-NPN, triplicates
T1 sequence (F6K0S3 22-166): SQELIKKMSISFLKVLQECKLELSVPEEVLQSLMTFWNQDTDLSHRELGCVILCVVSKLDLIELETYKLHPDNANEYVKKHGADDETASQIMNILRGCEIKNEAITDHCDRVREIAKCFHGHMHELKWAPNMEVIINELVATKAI
Procedure: In order to measure the affinity of CsupPBP1–4 to the fluorescent probe N-phenyl-1-naphthylamine (1-NPN), a 2 μM solution of each CsupPBP in 50 mM Tris-HCl buffer was titrated with 1 mM 1-NPN in methanol to final concentrations of 2–16 μM. The affinities of CsupPBP1–4 to other ligands were measured in competitive binding assays, where a 2 μM solution of both CsupPBPs and 1-NPN was titrated with 1 mM methanol solutions of each lignd to final concentrations of 0.2–1.6 μM. The Prism software was used to analyse the data and plot the binding curves. The ability of ligand to compete with 1-NPN was measured in competitive binding assays, where a mixture of the protein and 1-NPN, both at the concentration of 2 μM were titrated with 0.1 mM or 1 mM solutions of each ligand to the final concentrations reported in the figures. Fluorescence intensities are reported as percent of the values measured in the absence of competitors. All experiments were performed in triplicates and mean values and standard errors are reported. Binding constants of competitors were calculated from the corresponding IC50 values using the equation: KD = [IC50]/1 + [1-NPN]/K1-NPN, [1-NPN] being the free concentration of 1-NPN and K1-NPN being the dissociation constant of the complex Protein/1-NPN.

CsupPR4/CsupOrco = assay: Two-electrode voltage clamp recording from Xenopus oocytes coexpressing CsupPR4/CsupOrco; assay type: cell-based, Chilo suppressalis
Source text: (§1) The ORFs encoding CsupPRs were amplified and cloned into pT7Ts vector using specific primers (Supplementary Table S1). The cRNAs of all CsupPRs were synthesized using mMESSAGE Mmachine T7 kit (Ambion, Austin, TX).
(§2) The entire coding region of each CsupOR was sub-cloned into the XhoI/NotI sites of pT7Ts vector (Invitrogen) (Kozak sequence added before the cutting site in forward primer). The cRNAs of all CsupPRs were synthesized using mMESSAGE Mmachine T7 kit (Ambion, Austin, TX).
(§3) Electrophysiological recordings were performed according to previously reported protocols. Mature healthy oocytes (stage V–VII) (Nasco, Salida, California) were treated with collagenase I(GIBCO, Carlsbad, CA) in washing buffer (96 mM NaCl, 2 mM KCl, 5 mM MgCl2, and 5 mM HEPES [pH = 7.6]) for about 1 h at room temperature. […]
(§4) Whole-cell currents were recorded from the injected Xenopus oocytes with a two-electrode voltage clamp. Odorant induced currents were recorded with an OC-725C oocyte clamp (Warner Instruments, Hamden, CT) at a holding potential of […]. […]
(§5) Data acquisition and analyses were carried out with Digidata 1440A and pCLAMP 10.2 software (Axon Instruments Inc., Union City, CA). Statistical comparison of responses of oocytes to the tested ligands and dose-response data were analysed by GraphPad Prism 5.0 (GraphPad Software Inc., San Diego, CA). […]

CsupPR2/CsupOrco = assay: Two-electrode voltage clamp recording from Xenopus oocytes coexpressing CsupPR2/CsupOrco; assay type: cell-based, Chilo suppressalis
Source text: as §1, §2
(§6) Electrophysiological recordings were performed according to previously reported protocols. Mature healthy oocytes (stage V–VII) (Nasco, Salida, California) were treated with collagenase I(GIBCO, Carlsbad, CA) in washing buffer (96 mM NaCl, 2 mM KCl, 5 mM MgCl2, and 5 mM HEPES [pH = 7.6]) for about 1 h at room temperature. After being cultured overnight at 18 °C, oocytes were microinjected with 27.6 ng CsupORs cRNA and 27.6 ng CsupOrco cRNA. After injection, oocytes were incubated for 4–7 days at 18 °C in 1X Ringer’s solution (96 mM NaCl, 2 mM KCl, 5 mM MgCl2, 0.8 mM CaCl2, and 5 mM HEPES [pH = 7.6]) supplemented with 5% dialysed horse serum, […].
(§7) Whole-cell currents were recorded from the injected Xenopus oocytes with a two-electrode voltage clamp. Odorant induced currents were recorded with an OC-725C oocyte clamp (Warner Instruments, Hamden, CT) at a holding potential of […]. All experiments on PR responses were performed in six replicates, those involving interactions with PBPs in four replicates.
(§8) Data acquisition and analyses were carried out with Digidata 1440A and pCLAMP 10.2 software (Axon Instruments Inc., Union City, CA). Statistical comparison of responses of oocytes to the tested ligands and dose-response data were analysed by GraphPad Prism 5.0 (GraphPad Software Inc., San Diego, CA).
(§9) Tested pheromone components and analogs were purchased from Nimrod Inc (Changzhou, China, purify 96%). they were dissolved in dimethyl sulfoxide (DMSO) to 1 M Stock solutions and stored at −20 °C. Before testing, the stock solutions were diluted with 1 X Ringer’s buffer (96 mM NaCl, 2 mM KCl, 5 mM MgCl2, 0.8 mM CaCl2 and 5 mM HEPES [pH = 7.6]).

CsupPR1/CsupOrco = assay: Two-electrode voltage clamp recording from Xenopus oocytes coexpressing CsupPR1/CsupOrco; assay type: cell-based, Chilo suppressalis; conditions: ligand 10^−4 mol/L, each of the four CsupPBPs versus DMSO alone
Source text: as §1, §2, §3, §4, §5

CsupPR6/CsupOrco = assay: Two-electrode voltage clamp recording from Xenopus oocytes coexpressing CsupPR6/CsupOrco; assay type: cell-based, Chilo suppressalis; conditions: ligand 10^−4 mol/L; for Effect of PBPs on the response of PR6: each of the four CsupPBPs versus DMSO alone
Source text: as §1, §2, §6, §7, §8, §9

[1] = ligand 10^−4 mol/L, each of the four CsupPBPs versus receptor alone

In the case of `c1ccc(Nc2cccc3ccccc23)cc1` [1-NPN, N-phenyl-1-naphthylamine], the pKd (CsupPBP3) was ~5.52 and 5.51.
In the case of `CCCCCC/C=C\CCCCCCCC=O` [Z9–16:Ald, (Z)-9-hexadecenal], the “Inward current response of PR4” value (CsupPR4/CsupOrco; ligand 0.1 mM, no PBP, n = 6) was “specifically tuned”.
For `CCCC/C=C\CCCCCCCCO` [Z9–14:OH], the “Effect of PBPs on the response of PR2” value (CsupPR2/CsupOrco; [1]) was “inhibitory effect”, the “Effect of PBPs on the response of PR1” value (CsupPR1/CsupOrco) was “inhibitory effect” and the “Effect of PBPs on the response of PR6” value (CsupPR6/CsupOrco) was “inhibitory effect”. For the same molecule, the “Effect of PBPs on the response of PR6” value (CsupPR6/CsupOrco; listed as 4) was “reduction of the signal” and the “Effect of PBPs on the response of PR4” value (CsupPR4/CsupOrco; [1]) was “inhibitory effect”.
In the case of `CCCC/C=C\CCCCCCCCCC=O` [Z11–16:Ald, (Z)-11-hexadecenal], the “Increase in sensitivity (EC50) of PR2 in the presence of PBP1” value (CsupPR2/CsupOrco; dose-response with versus without PBP1) was “to minor extents”, the “Increase in sensitivity (EC50) of PR2 in the presence of PBP2” value (CsupPR2/CsupOrco; dose-response with versus without PBP2) was “more than one order of magnitude” and the “Increase in sensitivity (EC50) of PR2 in the presence of PBP3” value (CsupPR2/CsupOrco; dose-response with versus without PBP3) was “to minor extents”. The “Change in sensitivity (EC50) of PR2 in the presence of PBP4” value (CsupPR2/CsupOrco; dose-response with versus without PBP4) was “not affected”, the “Response of PR6 in the presence of PBP4 compared with other PBPs” value (CsupPR6/CsupOrco; PBP4) was “more strongly activated” and the “Effect of PBPs on the response of PR6” value (CsupPR6/CsupOrco) was “increased”.
